This note sets out measurements from ChEMBL document CHEMBL4699521, “Design and synthesis of 4-Aminoquinoline-isoindoline-dione-isoniazid triads as potential anti-mycobacterials” (Bioorg Med Chem Lett, 2020).

Data set [1] has as its system Mycobacterium tuberculosis. In words: Antitubercular activity against Mycobacterium tuberculosis mc2 6230 assessed as minimum inhibitory concentration required to inhibit 99% of bacterial growth. The class given is functional.
In data set [2] the test system is Mycobacterium tuberculosis. The data set can be described thus: Antitubercular activity against Mycobacterium tuberculosis mc2 6230 assessed as minimum inhibitory concentration required to inhibit 99% of bacterial growth incubated for 7 days by two-fold serial dilution method. The class given is functional. The following applies: mc2 6230, 168 h, time 7 day.
In data set [3] the test system is Vero. In words: Cytotoxicity against African green monkey Vero cells assessed as reduction in cell viability measured after 24 hrs by resazurin assay. It counts as cell-based. The following applies: Chlorocebus sabaeus.
Data set [4] has as its system Mycobacterium tuberculosis. In words: Antitubercular activity against Mycobacterium tuberculosis mc2 6230 assessed as minimum inhibitory concentration required to inhibit 99% of bacterial growth measured after 2 to 3 weeks. The class given is functional. The following applies: time weeks 2-3.
Data set [5] deals with Vero. The data set can be described thus: Cytotoxicity against African green monkey Vero cells. The class given is cell-based. The following applies: Chlorocebus sabaeus.
Data set [6] has as its target T1, Enoyl-[acyl-carrier-protein] reductase [NADH] (Mycobacterium tuberculosis) (UniProt P9WGR1).
T1 sequence (whole entry): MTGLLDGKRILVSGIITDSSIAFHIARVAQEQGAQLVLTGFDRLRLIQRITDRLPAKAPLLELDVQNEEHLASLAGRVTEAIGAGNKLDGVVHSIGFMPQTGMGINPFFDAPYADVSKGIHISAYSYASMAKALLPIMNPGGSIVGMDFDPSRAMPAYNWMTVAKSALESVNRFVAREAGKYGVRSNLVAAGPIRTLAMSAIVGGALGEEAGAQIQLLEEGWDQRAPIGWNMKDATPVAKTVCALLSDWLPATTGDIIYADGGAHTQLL
In words: Inhibition of Mycobacterium tuberculosis mc2 6230 InhA assessed as antimycobacterial activity by measuring minimum inhibitory concentration required to inhibit 99% of bacterial growth.

The nature of data set [7]: Selectivity index, ratio of IC50 for African green monkey Vero cells to MIC99 for Mycobacterium tuberculosis mc2 6230. The following applies: read-out: Selectivity Index. It counts as toxicity.
Data set [8] deals with Mycobacterium tuberculosis. In words: Antitubercular activity against Mycobacterium tuberculosis H37Rv assessed as reduction in bacterial cell growth measured after 7 days by alamar blue assay. It counts as functional. The following applies: 168 h, time 7 day.
Data set [9] deals with Mycobacterium tuberculosis. The data set can be described thus: Antimycobacterial activity against Mycobacterium tuberculosis H37Rv assessed as reduction in bacterial cell growth. The class given is functional.

In brackets after ≈: the same amount, converted by molar mass.

In the case of `O=C(NN1C(=O)c2cccc3cccc(c23)C1=O)c1ccncc1`, the minimum inhibitory concentration (MIC) in data set [1] is above 631 µM.
With `O=C(CN1C(=O)c2ccc(F)cc2C1=O)NCCNc1ccnc2cc(Cl)ccc12`, the MIC in data set [2] was found to be 14.6 µM (≈ 6.23 µg/mL). Besides, the IC50 in data set [3] is above 235 µM.
Turning to `Cc1ccc(N2C(=O)C(NC(=O)CCNc3ccnc4cc(Cl)ccc34)[C@@H]2/C=C/c2ccccc2)cc1` (some centres not stated), the MIC in [4] worked out at 9.8 µM (≈ 5.01 µg/mL).
In data set [5], `O=C(NNC(=O)c1ccc(N2C(=O)c3ccccc3C2=O)cc1)c1ccncc1` returned an IC50 above 259 µM. Also, in data set [6], the MIC99 was 129 µM (≈ 50 µg/mL). Also, in data set [7], the selectivity ratio is above 2.
The corresponding values for `O=C(O)c1ccc2c(c1)C(=O)N(CCNc1ccnc3cc(Cl)ccc13)C2=O` are above 253 µM, above 506 µM and above 0.5.
The corresponding values for `O=C(NN1C(=O)c2ccc(C(=O)OCCCNc3ccnc4cc(Cl)ccc34)cc2C1=O)c1ccncc1` are above 194 µM, 11.9 µM (≈ 6.31 µg/mL) and above 16.
The corresponding values for `O=C(NNC(=O)c1ccc2c(c1)C(=O)N(CCCCNc1ccnc3cc(Cl)ccc13)C2=O)c1ccncc1` are 16.6 µM, 23 µM (≈ 12.5 µg/mL) and 0.7.
On to `O=C(NN1C(=O)c2ccc(C(=O)OCCNc3ccnc4cc(Cl)ccc34)cc2C1=O)c1ccncc1`, for which the IC50 in data set [5] is above 194 µM. Besides, the MIC99 in [6] was above 388 µM. For the same compound, in data set [7], the selectivity ratio is above 0.5.
Taken in the same sequence, the figures for `O=C(NNC(=O)c1ccc2c(c1)C(=O)N(CCNc1ccnc3cc(Cl)ccc13)C2=O)c1ccncc1` were above 194 µM, 389 µM (≈ 200 µg/mL) and above 0.5.
Taken in the same sequence, the figures for `O=C(NN1C(=O)c2ccc(N3CCN(c4ccnc5cc(Cl)ccc45)CC3)cc2C1=O)c1ccncc1` were above 195 µM, 6 µM (≈ 3.08 µg/mL) and above 32.5.
The corresponding values for `O=C(O)c1ccc2c(c1)C(=O)N(CCCNc1ccnc3cc(Cl)ccc13)C2=O` are 242 µM, 489 µM (≈ 200 µg/mL) and 0.5.
In [5], `O=C(O)c1ccc2c(c1)C(=O)N(CCCCCCCCNc1ccnc3cc(Cl)ccc13)C2=O` yielded an IC50 above 209 µM. Besides, the MIC99 in [6] is 417 µM (≈ 200 µg/mL). Moreover, the selectivity ratio in data set [7] was above 0.5.
With `O=C1C(=O)N(CCCN2CCN(c3ccnc4cc(Cl)ccc34)CC2)c2ccc(F)cc21`, in [4], the MIC was below 10.1 µM.
In the case of `O=C(NCCCCNc1ccnc2cc(Cl)ccc12)c1ccc2c(c1)C(=O)N(NC(=O)c1ccncc1)C2=O`, in data set [5], the IC50 came to 14.7 µM. For the same compound, in data set [6], the MIC99 came to 23 µM (≈ 12.5 µg/mL). Further, the selectivity ratio in data set [7] amounted to 0.6.
In data set [5], `O=C(NCCCCCCNc1ccnc2cc(Cl)ccc12)c1ccc2c(c1)C(=O)N(NC(=O)c1ccncc1)C2=O` showed an IC50 of 33.3 µM. Besides, the MIC99 in data set [6] came out at 11 µM (≈ 6.28 µg/mL). Further, the selectivity ratio in data set [7] is 3.
Compound `O=C(O)c1ccc2c(c1)C(=O)N(CCCCCCNc1ccnc3cc(Cl)ccc13)C2=O` yielded an IC50 in data set [5] of 24.3 µM. In data set [6], the MIC99 stood at 222 µM (≈ 100 µg/mL). In addition, the selectivity ratio in data set [7] stood at 0.11.
Taken in the same sequence, the figures for `O=C(CN1C(=O)c2ccccc2C1=O)NNC(=O)c1ccncc1` were above 308 µM, 308 µM (≈ 100 µg/mL) and above 1.
Taken in the same sequence, the figures for `O=C(O)c1ccc2c(c1)C(=O)N(CCCCNc1ccnc3cc(Cl)ccc13)C2=O` were 40.1 µM, 236 µM (≈ 100 µg/mL) and 0.16.
For the compound `O=C1c2ccc(N3CCCCC3)cc2C(=O)N1CCCCNc1ccnc2cc(Cl)ccc12`, in [2], the MIC turned out to be 13.5 µM (≈ 6.25 µg/mL). The IC50 in data set [3] was above 216 µM.
With `NNC(=O)c1ccncc1`, the MIC99 in [6] turned out to be 0.07 µM (≈ 0.0096 µg/mL).
The compound `O=C(NNC(=O)c1ccc2c(c1)C(=O)N(CCCCCCNc1ccnc3cc(Cl)ccc13)C2=O)c1ccncc1` returned an IC50 in data set [5] of 128 µM. Also, the MIC99 in data set [6] came to 21.9 µM (≈ 12.5 µg/mL). The selectivity ratio in data set [7] came to 5.8.
Take `O=C(Cn1cc(CN2C(=O)c3ccccc3C2=O)nn1)Nc1ccc(Br)cc1`: in [8], the MIC is 28.4 µM (≈ 12.5 µg/mL).
The compound `O=C(NCCCNc1ccnc2cc(Cl)ccc12)c1ccc2c(c1)C(=O)N(NC(=O)c1ccncc1)C2=O` had an IC50 in data set [5] of 161 µM. Further, in data set [6], the MIC99 is 5.8 µM (≈ 3.07 µg/mL). In addition, in [7], the selectivity ratio was 27.
On to `O=C(NNC(=O)c1ccc2c(c1)C(=O)N(CCCNc1ccnc3cc(Cl)ccc13)C2=O)c1ccncc1`, for which the IC50 in [5] was 119 µM. In addition, the MIC99 in [6] amounted to 47.3 µM (≈ 25 µg/mL). The selectivity ratio in data set [7] worked out at 2.5.
Take `O=C(NCCNc1ccnc2cc(Cl)ccc12)c1ccc2c(c1)C(=O)N(NC(=O)c1ccncc1)C2=O`: the IC50 in [5] turned out to be 64.1 µM. The MIC99 in data set [6] is 6 µM (≈ 3.09 µg/mL). Also, the selectivity ratio in data set [7] was 10.6.
Taken in the same sequence, the figures for `O=C(NNC(=O)c1ccc2c(c1)C(=O)N(CCCCCCCCNc1ccnc3cc(Cl)ccc13)C2=O)c1ccncc1` were 129 µM, 5.1 µM (≈ 3.06 µg/mL) and 25.
Consider `O=C(NN1C(=O)c2c(F)c(F)c(F)c(F)c2C1=O)c1ccncc1`, for which the MIC in [9] turned out to be 3.4 µM (≈ 1.15 µg/mL).
`O=C(NCCCCCCCCNc1ccnc2cc(Cl)ccc12)c1ccc2c(c1)C(=O)N(NC(=O)c1ccncc1)C2=O` yielded an IC50 in [5] above 167 µM. Further, the MIC99 in [6] was 5.1 µM (≈ 3.06 µg/mL). The selectivity ratio in [7] was above 32.7.
As for `O=C1c2ccccc2C(=O)N1CCCCCCCCNc1ccnc2cc(Cl)ccc12`, half-maximal inhibition in data set [5] (IC50) required 11.4 µM. Besides, the MIC in [1] was determined as 13.5 µM (≈ 5.89 µg/mL).
